Measured values as given in the NIST ThermoML archive (doi:10.1021/acs.jced.8b00554).

Assay: xn = mol fraction of the nth substance listed
Details: Liquid, Vibrating tube method

CCCCCCCCCC [decane] + CCCO
mass density [kg/m3]
Details | 323.15 K | 333.15 K
100 kPa, x2 = 0.1391 | – | 698
100 kPa, x2 = 0.1907 | – | 699.22
100 kPa, x2 = 0.3001 | – | 702.36
100 kPa, x2 = 0.4326 | – | 706.94
100 kPa, x2 = 0.6863 | – | 723.34
100 kPa, x2 = 0.8711 | – | 744.53
1000 kPa, x2 = 0.8711 | – | 745.47
1010 kPa, x2 = 0.3001 | – | 703.4
1010 kPa, x2 = 0.4326 | – | 708.03
1010 kPa, x2 = 0.6863 | – | 724.38
1020 kPa, x2 = 0.1391 | – | 699.13
1020 kPa, x2 = 0.1907 | – | 700.31
2000 kPa, x2 = 0.1391 | – | 700.15
2000 kPa, x2 = 0.1907 | – | 701.33
2000 kPa, x2 = 0.6863 | – | 725.39
2010 kPa, x2 = 0.4326 | – | 709.06
2020 kPa, x2 = 0.3001 | – | 704.44
2020 kPa, x2 = 0.8711 | – | 746.44
3000 kPa, x2 = 0.3001 | – | 705.44
3010 kPa, x2 = 0.1391 | – | 701.15
3010 kPa, x2 = 0.1907 | – | 702.33
3010 kPa, x2 = 0.4326 | – | 710.06
3010 kPa, x2 = 0.6863 | – | 726.41
3010 kPa, x2 = 0.8711 | – | 747.43
4000 kPa, x2 = 0.1391 | – | 702.13
4000 kPa, x2 = 0.1907 | – | 703.34
4010 kPa, x2 = 0.4326 | – | 711.1
4010 kPa, x2 = 0.8711 | – | 748.4
4020 kPa, x2 = 0.3001 | – | 706.45
4020 kPa, x2 = 0.6863 | – | 727.43
5000 kPa, x2 = 0.1907 | – | 704.33
5000 kPa, x2 = 0.3001 | – | 707.44
5010 kPa, x2 = 0.1391 | – | 703.13
5010 kPa, x2 = 0.6863 | – | 728.46
5020 kPa, x2 = 0.4326 | – | 712.1
5020 kPa, x2 = 0.8711 | – | 749.4
6000 kPa, x2 = 0.1391 | – | 704.1
6000 kPa, x2 = 0.1907 | – | 705.29
6000 kPa, x2 = 0.3001 | – | 708.43
6010 kPa, x2 = 0.4326 | – | 713.11
6010 kPa, x2 = 0.6863 | – | 729.45
6020 kPa, x2 = 0.8711 | – | 750.38
7000 kPa, x2 = 0.1391 | – | 705.07
7000 kPa, x2 = 0.4326 | – | 714.11
7000 kPa, x2 = 0.8711 | – | 751.38
7010 kPa, x2 = 0.3001 | – | 709.43
7020 kPa, x2 = 0.1907 | – | 706.27
7020 kPa, x2 = 0.6863 | – | 730.46
8000 kPa, x2 = 0.1391 | – | 706.06
8000 kPa, x2 = 0.4326 | – | 715.11
8010 kPa, x2 = 0.1907 | – | 707.25
8010 kPa, x2 = 0.6863 | – | 731.46
8020 kPa, x2 = 0.3001 | – | 710.42
8020 kPa, x2 = 0.8711 | – | 752.35
9010 kPa, x2 = 0.1391 | – | 707
9010 kPa, x2 = 0.1907 | – | 708.23
9010 kPa, x2 = 0.3001 | – | 711.39
9010 kPa, x2 = 0.4326 | – | 716.11
9010 kPa, x2 = 0.6863 | – | 732.47
9010 kPa, x2 = 0.8711 | – | 753.31
10000 kPa, x2 = 0.1391 | – | 707.95
10000 kPa, x2 = 0.4326 | 726.96 | 717.1
10010 kPa, x2 = 0.3001 | – | 712.39
10010 kPa, x2 = 0.6863 | 743.54 | 733.45
10020 kPa, x2 = 0.1907 | – | 709.15
10020 kPa, x2 = 0.8711 | 764.05 | 754.28
11000 kPa, x2 = 0.1391 | 717.57 | –
11000 kPa, x2 = 0.1907 | 719.05 | 710.11
11010 kPa, x2 = 0.1391 | – | 708.9
11010 kPa, x2 = 0.3001 | 723.06 | –
11010 kPa, x2 = 0.4326 | 727.85 | –
11010 kPa, x2 = 0.6863 | 744.43 | 734.43
11020 kPa, x2 = 0.3001 | – | 713.35
11020 kPa, x2 = 0.4326 | – | 718.06
11020 kPa, x2 = 0.8711 | 764.93 | 755.24
12000 kPa, x2 = 0.1907 | – | 711.08
12000 kPa, x2 = 0.3001 | 723.94 | –
12000 kPa, x2 = 0.4326 | – | 719.03
12010 kPa, x2 = 0.1391 | 718.43 | 709.82
12010 kPa, x2 = 0.6863 | 745.32 | 735.38
12020 kPa, x2 = 0.1907 | 719.94 | –
12020 kPa, x2 = 0.3001 | – | 714.31
12020 kPa, x2 = 0.4326 | 728.74 | –
12020 kPa, x2 = 0.8711 | 765.79 | 756.17
13000 kPa, x2 = 0.1391 | 719.28 | –
13000 kPa, x2 = 0.8711 | – | 757.09
13010 kPa, x2 = 0.1391 | – | 710.75
13010 kPa, x2 = 0.1907 | 720.8 | 712
13010 kPa, x2 = 0.3001 | 724.81 | –
13010 kPa, x2 = 0.4326 | – | 719.98
13010 kPa, x2 = 0.6863 | 746.21 | 736.35
13020 kPa, x2 = 0.3001 | – | 715.25
13020 kPa, x2 = 0.4326 | 729.62 | –
13020 kPa, x2 = 0.8711 | 766.65 | –
14000 kPa, x2 = 0.1907 | – | 712.92
14000 kPa, x2 = 0.3001 | 725.66 | –
14000 kPa, x2 = 0.4326 | 730.47 | –
14000 kPa, x2 = 0.6863 | 747.08 | –
14000 kPa, x2 = 0.8711 | – | 758.02
14010 kPa, x2 = 0.1391 | 720.12 | 711.65
14010 kPa, x2 = 0.3001 | – | 716.18
14020 kPa, x2 = 0.1907 | 721.64 | –
14020 kPa, x2 = 0.4326 | – | 720.92
14020 kPa, x2 = 0.6863 | – | 737.27
14020 kPa, x2 = 0.8711 | 767.51 | –
15000 kPa, x2 = 0.4326 | 731.33 | –
15000 kPa, x2 = 0.6863 | 747.92 | –
15000 kPa, x2 = 0.8711 | 768.36 | –
15010 kPa, x2 = 0.1391 | 720.95 | 712.53
15010 kPa, x2 = 0.1907 | – | 713.82
15010 kPa, x2 = 0.3001 | 726.5 | –
15010 kPa, x2 = 0.4326 | – | 721.82
15010 kPa, x2 = 0.6863 | – | 738.18
15010 kPa, x2 = 0.8711 | – | 758.93
15020 kPa, x2 = 0.1907 | 722.47 | –
15020 kPa, x2 = 0.3001 | – | 717.1
16000 kPa, x2 = 0.1907 | 723.29 | –
16000 kPa, x2 = 0.6863 | 748.78 | –
16000 kPa, x2 = 0.8711 | 769.18 | –
16010 kPa, x2 = 0.1391 | 721.76 | 713.4
16010 kPa, x2 = 0.1907 | – | 714.7
16010 kPa, x2 = 0.3001 | 727.33 | 717.99
16010 kPa, x2 = 0.4326 | 732.15 | 722.73
16010 kPa, x2 = 0.6863 | – | 739.1
16020 kPa, x2 = 0.8711 | – | 759.81
17000 kPa, x2 = 0.1391 | 722.56 | –
17000 kPa, x2 = 0.6863 | 749.59 | 740
17000 kPa, x2 = 0.8711 | – | 760.7
17010 kPa, x2 = 0.1907 | 724.12 | –
17010 kPa, x2 = 0.3001 | – | 718.88
17010 kPa, x2 = 0.4326 | 732.96 | 723.6
17010 kPa, x2 = 0.8711 | 770.01 | –
17020 kPa, x2 = 0.1391 | – | 714.27
17020 kPa, x2 = 0.1907 | – | 715.58
17020 kPa, x2 = 0.3001 | 728.15 | –
18000 kPa, x2 = 0.1391 | – | 715.12
18000 kPa, x2 = 0.1907 | – | 716.42
18000 kPa, x2 = 0.3001 | – | 719.72
18000 kPa, x2 = 0.4326 | – | 724.49
18000 kPa, x2 = 0.6863 | – | 740.88
18010 kPa, x2 = 0.1391 | 723.35 | –
18010 kPa, x2 = 0.3001 | 728.94 | –
18010 kPa, x2 = 0.4326 | 733.77 | –
18010 kPa, x2 = 0.6863 | 750.41 | –
18010 kPa, x2 = 0.8711 | 770.81 | –
18020 kPa, x2 = 0.1907 | 724.91 | –
18020 kPa, x2 = 0.8711 | – | 761.56
19000 kPa, x2 = 0.4326 | 734.57 | –
19010 kPa, x2 = 0.1391 | – | 715.93
19010 kPa, x2 = 0.1907 | 725.67 | 717.24
19010 kPa, x2 = 0.3001 | 729.72 | –
19010 kPa, x2 = 0.4326 | – | 725.32
19010 kPa, x2 = 0.6863 | 751.21 | 741.72
19010 kPa, x2 = 0.8711 | 771.61 | –
19020 kPa, x2 = 0.1391 | 724.11 | –
19020 kPa, x2 = 0.3001 | – | 720.57
19020 kPa, x2 = 0.8711 | – | 762.39
20000 kPa, x2 = 0.3001 | – | 721.37
20010 kPa, x2 = 0.1391 | 724.85 | –
20010 kPa, x2 = 0.1907 | 726.42 | 718.03
20010 kPa, x2 = 0.4326 | 735.37 | –
20010 kPa, x2 = 0.6863 | – | 742.58
20010 kPa, x2 = 0.8711 | 772.39 | 763.23
20020 kPa, x2 = 0.1391 | – | 716.72
20020 kPa, x2 = 0.3001 | 730.47 | –
20020 kPa, x2 = 0.4326 | – | 726.17
20020 kPa, x2 = 0.6863 | 752 | –
